Measured values reported in US20260198495A1, “BINARY INSECTICIDE COMPOSITION AND USE THEREOF” (SHENYANG SINOCHEM AGROCHEMICALS R & D CO., LTD., priority 2022, published 2026).

How the values were obtained:
Assay type in all cases: in vivo
[1] = test system: 3rd-instar larvae of Pyrausta nubilalis Hubern; assay: Joint toxicity of I-72 + metaflumizone, artificial diet-pesticide film, Example 2, Table 2; details: 72 h, A = compound I-72, B = metaflumizone
Procedure: (§1) Test subject: 3rd-instar larvae of Pyrausta nubilalis Hubern, a sensitive strain reared indoors.
(§2) Experimental method: the artificial diet-pesticide film method was adopted. A standard clean 24-well culture plate was selected. 1 ml of artificial diet was added to each well. After the diet cooled and solidified, a quantitative amount of a pesticide solution was added to the culture plate using a continuous sampler, and then it was air-dried naturally in the shade. The standard test insects were introduced, with 1 insect in each well, a total of 48 insects. The treated test insects were placed in an observation room under certain conditions. The reaction of the test insects was regularly observed, and the number of dead and live insects was investigated 72 h later.
(§3) The test conditions, the preparation method of the pesticide solution, and the evaluation method (Sun Y-P) for the joint action type of the mixture were the same as those in Example 1.

[2] = test system: 3rd-instar larvae of Plutella xylostella; assay: Joint toxicity of I-72 + metaflumizone, airbrush spraying, Example 4, Table 4; details: airbrush spraying of cabbage leaf disks, 72 h, A = compound I-72, B = metaflumizone
Procedure: Test target: 3rd-instar larvae of Plutella xylostella, a sensitive strain reared indoors.
Test conditions: temperature: 25-27° C., humidity: RH 60%, and illumination: L:D=14:10
Experimental method: the airbrush spraying method was adopted. The cabbage cultivated in the greenhouse was taken and made into leaf disks with a diameter of 3 cm. After uniform spraying treatment with an airbrush manual sprayer, the leaf disks were placed in a 9-cm Petri dish lined with filter paper. After natural air-drying in the shade, the standard test insects were introduced, and the number of dead and live insects was investigated 72 h later.
The preparation of the pesticide solution and the evaluation method (Sun Y-P) for the joint action type of the mixture were the same as those in Example 1.

[3] = test system: 3rd-instar larvae of Pyrausta nubilalis Hubern; assay: Synergism assay (Bliss) of I-72 + abamectin, spinosad, spinetoram, emamectin benzoate, Example 6, Table 6; details: 72 h
Procedure: as §1
Test conditions: temperature: 24-26° C., humidity: RH 60%, and illumination: L:D=14:10
(§4) Preparation method: the test pesticides were accurately weighed respectively with an electronic analytical balance. After the two technical materials were respectively added into an appropriate amount of solvent and completely dissolved, the stock solution of the required concentration was prepared with water containing 0.1% Tween 80. The stock solutions of the two active ingredients were mixed in a certain ratio to prepare a mixed solution, which was then diluted respectively into a series of pesticide solutions with a certain concentration gradient according to the experimental design dosage.
as §2
The evaluation method adopted was the Bliss method. This method is applicable to the qualitative screening of insecticidal compositions. According to the concept of independent joint action he proposed, Bliss believes that the theoretical mortality rate P when insecticides are used in combination can be calculated by the following formula: […]
Pm is the mortality rate (%) of the target when the first active ingredient is at a concentration of m; and Pn is the mortality rate (%) of the target when the second active ingredient is at a concentration of n.
If the actual mortality rate of the target after the two active ingredients are mixed at a certain concentration is greater than theoretical mortality rate P, it is determined that the two active ingredients have a synergistic effect when used in combination at the set concentration, and otherwise, they have an antagonistic effect.

[4] = test system: 3rd-instar larvae of Spodoptera frugiperda; assay: Joint toxicity of I-72 + spinosad, corn leaf dipping, Example 10, Table 10; details: 72 h, A = compound I-72, B = spinosad
Description: (§5) Test subject: 3rd-instar larvae of Spodoptera frugiperda, a sensitive strain reared indoors.
(§6) Experimental method: the dipping method was adopted. The corn leaves cultivated in the greenhouse were taken, cut into leaf segments of 5 cm long, dipped in the prepared pesticide solution for 10 s, and then cut into small pieces of 1.5 cm×1.5 cm after natural air-drying in the shade. These pieces were placed in a 24-well culture plate, and the standard test insects were introduced, with 48 insects for each treatment. The treated test insects were placed in an observation room under certain conditions. The reaction of the test insects was regularly observed, and the number of dead and live insects was investigated 72 h later.
(§7) The test conditions, the preparation of the pesticide solution and the evaluation method were the same as those in Example 1.

[5] = test system: 3rd-instar larvae of Spodoptera exigua Hübner; assay: Joint toxicity (LC50, CTC) of I-72 + indoxacarb, leaf-disk dipping, Example 1, Table 1; details: cabbage leaf-disk dipping, 72 h, A = compound I-72, B = indoxacarb
Procedure: (§8) Test subject: 3rd-instar larvae of Spodoptera exigua Hübner, a sensitive strain reared indoors.
Test conditions: temperature: 24-26° C., humidity: RH 60%, and illumination: L:D=14:10.
as §4
Experimental method: the dipping method was adopted. […]
The co-toxicity coefficient (CTC value) of the mixture was calculated according to the following formula:
[formula] • in the formula: ATI-measured toxicity index of the mixture; S-LC50 of the standard pesticide; and M-LC50 of the mixture. […]
[formula] • in the formula: CTC-co-toxicity coefficient; ATI-measured toxicity index of the mixture; and TTI-theoretical toxicity index of the mixture. • CTC-co-toxicity coefficient • ATI-measured toxicity index of the mixture • TTI-theoretical toxicity index of the mixture

[6] = test system: 3rd-instar larvae of Spodoptera frugiperda; assay: Joint toxicity of I-72 + indoxacarb, corn leaf dipping, Example 3, Table 3; details: 72 h, A = compound I-72, B = indoxacarb
Description: as §5, §6, §3

[7] = test system: 2nd-instar larvae of Chilo suppressalis (Walker); assay: whole plant or invertebrate; details: resistant 2nd-instar larvae, rice stalk spraying, 72 h; A = compound I-72, B = spinetoram
Procedure: In addition, a blank control was set up. The number of dead and live insects was investigated 72 hours later.

[8] = test system: 2nd-instar nymphs of Frankliniella occidentalis Pergande; assay: Joint toxicity of I-72 + spinetoram, leaf spraying, Example 11, Table 11; details: kidney bean leaf spraying, 48 h, A = compound I-72, B = spinetoram
Description: Test subject: 2nd-instar nymphs of Frankliniella occidentalis Pergande, a sensitive strain reared indoors.
Experimental method: the spraying method was adopted. The kidney bean leaves cultivated in the greenhouse were selected, and the petioles were wrapped with moist degreased cotton and sealing film. They were evenly sprayed with the pesticide solution in the order from low dosage to high dosage according to the experimental design, placed in a 6-cm-diameter Petri dish with filter paper. After natural air-drying in the shade, the test insects were introduced, with 20 insects for each treatment and 3 replicates. In addition, a blank control was set up. The number of dead and live insects was investigated 48 hours later. The corrected mortality rate was calculated using the Abbott's formula, and the DPS data processing software was used for statistical analysis to calculate the toxicities (LC50 values) of the single test pesticides and the mixtures under the test ratios.
as §7

[9] = test system: 3rd-instar larvae of Spodoptera exigua Hübner; assay: Joint toxicity of I-72 + emamectin benzoate, leaf-disk dipping, Example 9, Table 9; details: cabbage leaf-disk dipping, 72 h, A = compound I-72, B = emamectin benzoate
Description: as §8
Experimental method: the dipping method was adopted. The cabbage leaves cultivated in the greenhouse were taken, the surface wax layer was removed, and leaf disks with a diameter of 3 cm were made with a puncher. The leaf disks were dipped in the prepared pesticide solution for 10 s, and then put into a 9-cm-diameter Petri dish lined with filter paper. After natural air-drying in the shade, the standard test insects were introduced, with 10 insects placed in each dish and 3 replicates performed. The treated test insects were placed in an observation room under certain conditions. The reaction of the test insects was regularly observed, and the number of dead and live insects was investigated 72 h later.
as §7

[10] = test system: adult Bemisia tabaci (Gennadius); assay: Joint toxicity of I-72 + emamectin benzoate, seedling spraying, Example 12, Table 12; details: adults, kidney bean seedling spraying, 72 h; A = compound I-72, B = emamectin benzoate
Description: Test subject: adult Bemisia tabaci (Gennadius), a sensitive strain reared indoors.
Experimental method: the spraying method was adopted. The kidney bean seedlings cultivated in the greenhouse were selected and evenly sprayed with the pesticide solution in the order from low dosage to high dosage according to the experimental design. After natural air-drying in the shade, a self-made glass cover was put on, and the test insects were introduced, with 20-30 insects for each treatment and 3 replicates. In addition, a blank control was set up. The number of dead and live insects was investigated 72 hours later. The corrected mortality rate was calculated using the Abbott's formula, and the DPS data processing software was used for statistical analysis to calculate the toxicities (LC50 values) of the single test pesticides and the mixtures under the test ratios.
as §7

[11] = test system: 3rd-instar larvae of Chilo suppressalis (Walker); assay: Joint toxicity of I-72 + organophosphorus insecticides, rice seedling dipping, Example 15, Table 15; details: 48 h
Procedure: Test target: 3rd-instar larvae of Chilo suppressalis (Walker), a sensitive strain reared indoors.
(§9) Preparation of the pesticide solution: according to different test requirements, the test samples were accurately weighed respectively with an electronic analytical balance. The technical pesticides were dissolved in acetone, and then diluted with 0.1% Tween 80 water into a series of pesticide solutions with a certain concentration gradient according to the experimental design dosage.
(§10) Experimental method: first, tender and fresh rice seedlings were selected and dipped in the prepared pesticide solution for 10 s in the order from low dosage to high dosage according to the experimental design. After natural air-drying in the shade, they were cut into small sections of 5 cm, placed in a 9-cm-diameter Petri dish with filter paper, and uniform and healthy test insects were introduced, with 10 insects for each treatment and 3 replicates for each treatment. In addition, a blank control was set up.
(§11) The treated test materials were placed in an observation room, and the temperature, humidity and illumination of the observation room could be adjusted as needed. The number of dead and live insects was investigated 48 hours later. The corrected mortality rate was calculated using the Abbott's formula, and statistical analysis was performed with the DPS data processing software to obtain the toxicity regression equation, LC50 value and 95% confidence limit of each single test pesticide and each mixture of different ratios. Then, the co-toxicity coefficient of each ratio was calculated using the Sun Y-P method to evaluate the mixing effect (the same as in Example 1).

[12] = test system: Bemisia tabaci (Gennadius) nymphs; assay: Joint toxicity of I-72 + organophosphorus insecticides, cotton leaf-disk spraying, Example 18, Table 18; details: 96 h
Procedure: Test target: Bemisia tabaci (Gennadius) nymphs.
as §9
Experimental method: first, cotton leaves with neat and consistent Bemisia tabaci (Gennadius) nymphs were selected and made into leaf disks, with about 20 insects on each leaf disk. Then, they were evenly sprayed with the pesticide solution in the order from low dosage to high dosage according to the experimental design, with 1.5 mL for each leaf and 3 replicates for each treatment. In addition, a blank control was set up.
as §11, with “96” for “48”

adult Phyllotreta spp. = assay: Joint toxicity of I-72 + organophosphorus insecticides, cabbage seedling spraying, Example 19, Table 19; details: 72 h
Procedure: Test target: adult Phyllotreta spp., a sensitive strain reared indoors.
as §9
Experimental method: first, fresh cabbage seedlings cultivated in the greenhouse were selected and evenly sprayed with the pesticide solution in the order from low dosage to high dosage according to the experimental design. After natural air-drying in the shade, they were covered with a glass cover, and uniform and healthy test insects were introduced, with 10 insects for each treatment and 3 replicates for each treatment. In addition, a blank control was set up.
as §11, with “72” for “48”

[13] = test system: 3rd-instar larvae of Ostrinia furnacalis Guenee; assay: Joint toxicity of I-72 + organophosphorus insecticides, corn stalk dipping, Example 21, Table 21; details: 48 h
Procedure: Test target: 3rd-instar larvae of Ostrinia furnacalis Guenee, a sensitive strain reared indoors.
as §9
as §10, with “first, fresh” for “first,”, “corn stalks cultivated in the greenhouse” for “and fresh rice seedlings”, “selected, cut into small sections of 3 cm,” for “selected”, “were” for “were cut into small sections of 5 cm,”
as §11

N#Cc1ccc(CC(=NNC(=O)Nc2ccc(OC(F)(F)F)cc2)c2cccc(C(F)(F)F)c2)cc1 (mixture of isomers) [metaflumizone, reference compound]
LC50 [1]: 1.0724 mg/L
LC50 [2]: 12.8933 mg/L

spinosad
Mortality rate (%) ([3]; single agent 0.1 mg/L): 4.17%
Mortality rate (%) ([3]; single agent 1 mg/L): 52.08%
Mortality rate (%) ([3]; single agent 2 mg/L): 68.75%
Mortality rate (%) ([3]; single agent 5 mg/L): 79.17%
LC50 [4]: 1.1242 mg/L

COC(=O)N(C(=O)N1CO[C@@]2(C(=O)OC)Cc3cc(Cl)ccc3C2=N1)c1ccc(OC(F)(F)F)cc1 [indoxacarb, reference compound]
LC50 [5]: 0.8555 mg/L
LC50 [6]: 2.2438 mg/L

spinetoram
Mortality rate (%) ([3]; single agent 0.1 mg/L): 8.33%
Mortality rate (%) ([3]; single agent 1 mg/L): 56.25%
Mortality rate (%) ([3]; single agent 2 mg/L): 70.83%
Mortality rate (%) ([3]; single agent 5 mg/L): 81.25%
LC50 [7]: 9.4220 mg/L
LC50 [8]: 0.7822 mg/L

emamectin benzoate
Mortality rate (%) ([3]; single agent 0.05 mg/L): 41.67%
Mortality rate (%) ([3]; single agent 0.1 mg/L): 50.00%
Mortality rate (%) ([3]; single agent 0.2 mg/L): 79.17%
Mortality rate (%) ([3]; single agent 0.5 mg/L): 87.50%
LC50 [9]: 0.0878 mg/L
LC50 [10]: 1.1995 mg/L

COP(=O)(NC(C)=O)SC (stereo not shown) [acephate]
LC50 [11]: 11.1 µg/mL
LC50 [12]: 34.9 µg/mL
LC50 (adult Phyllotreta spp.): 61.6 µg/mL
LC50 [13]: 15.5 µg/mL
